Measurements taken from US11274124B2, “Tubulysin analogues as anticancer agents and payloads for antibody-drug conjugates and methods of treatment therewith” (William Marsh Rice University, priority 2017, dated 2022).
Like-named read-outs stand apart in the source and are kept apart here.

Assays:
[1] = test system: HEK 293T (human embryonic kidney cancer cell line); experiment: In vitro cytotoxicity assay (CellTiter-Glo, 72 hours), HEK 293T; type: cell-based; conditions: Homo sapiens, HEK-293T, 72 h
[2] = test system: MES SA DX (MES SA cell line with marked multi-drug resistance); experiment: In vitro cytotoxicity assay (CellTiter-Glo, 72 hours), MES SA DX; conditions: Homo sapiens, MES-SA, 72 h
[3] = test system: MES SA (uterine sarcoma cell line); experiment: In vitro cytotoxicity assay (CellTiter-Glo, 72 hours), MES SA; type: cell-based; conditions: Homo sapiens, MES-SA, 72 h
[4] = test system: MES SA, MES SA DX and HEK 293T cells; experiment: In vitro cytotoxicity assay, structure-activity discussion over the cell lines tested; conditions: refers to Tables 2 and 3
[5] = read-out: HEK 293T, IC50 Value in nM
[6] = read-out: MES SA DX, IC50 Value in nM
[7] = read-out: MES SA, IC50 Value in nM

For `COC(=O)[C@@H](C)C[C@H](Cc1ccc2ccccc2c1)NC(=O)c1csc([C@@H](C[C@H](C(C)C)N(C)C(=O)[C@@H](NC(=O)[C@H]2CCCCN2C)C(C)C)OC(C)=O)n1` [Tb104, Methyl (2S)-4-{[(2-{1-acetoxy-4-methyl-3-[methyl(3-methyl-2-{[(1-methylpiperidin-2-yl)carbonyl]-amino}butanoyl)amino]pentyl}-1,3-thiazol-4-yl)carbonyl]amino}-2-methyl-5-(2-naphthyl)pentanoate], the IC50 [1, 5] was 12.8 nM, the IC50 [2, 6] was > 1000 nM and the IC50 [3, 7] was 9.5 nM. The “cytotoxicity potency (in words, structure-activity discussion)” value (“cytotoxicity potency” for short) [4] was “modest potency”.

`CC(=O)O[C@H](C[C@H](C(C)C)N(C)C(=O)[C@@H](NC(=O)[C@H]1CCCCN1C)C(C)C)c1nc(C(=O)N[C@@H](Cc2ccccc2)C[C@H](C)C(=O)O)cs1` [Tb61, (2S,4R)-4-[({2-[(1R,3R)-1-Acetoxy-4-methyl-3-{methyl[(2S)-3-methyl-2-({[(2R)-1-methylpiperidin-2-yl]carbonyl}amino)butanoyl]amino}pentyl]-1,3-thiazol-4-yl}carbonyl)amino]-2-methyl-5-phenylpentanoic acid] was tested, and the IC50 [1, 5] was 5.99 nM, the IC50 [2, 6] was > 1000 nM and the IC50 [3, 7] was 6.07 nM. The “cytotoxicity potency” value [4] was “exceptional potencies”.

For `CC[C@H](C)[C@H](NC(=O)c1cccn1C)C(=O)N(C)[C@H](C[C@@H](OC(C)=O)c1nc(C(=O)N[C@@H](Cc2ccccc2)C[C@H](C)C(=O)OC)cs1)C(C)C` [Tb50], the IC50 [1, 5] was > 1000 nM, the IC50 [2, 6] was > 1000 nM and the IC50 [3, 7] was > 1000 nM. The “cytotoxicity potency” value [4] was “insignificant or low biological activity”.

In the case of `CC[C@H](NC(=O)[C@H]1CCCCN1C)C(=O)N(C)[C@H](C[C@@H](OC(C)=O)c1nc(C(=O)N[C@@H](Cc2ccccc2)C[C@H](C)C(=O)O)cs1)C(C)C` [Tb94, (2S,4R)-4-[({2-[(1R,3R)-1-acetoxy-4-methyl-3-{methyl[(2S)-2-({[(2R)-1-methylpiperidin-2-yl]carbonyl}amino)butanoyl]amino}pentyl]-1,3-thiazol-4-yl}carbonyl)amino]-2-methyl-5-phenylpentanoic acid], the IC50 ([1]; read-out: HEK 293T, IC50) is reported as 0.4 nM, the IC50 [1, 5] is reported as 0.4 nM and the IC50 ([2]; read-out: MES SA DX, IC50) is reported as 89.8 nM. It also gave an IC50 [2, 6] of 89.8 nM, an IC50 ([3]; read-out: MES SA, IC50) of 0.46 nM and an IC50 [3, 7] of 0.46 nM. For the same molecule, the “cytotoxicity potency” value [4] was “significant potencies”.

`CC(=O)O[C@H](C[C@H](C(C)C)N(C)C(=O)[C@@H](NC(=O)[C@H]1CCCN1C)C(C)C)c1nc(C(=O)N[C@@H](Cc2ccccc2)C[C@H](C)C(=O)O)c(C)s1` [Tb71, (2S,4R)-4-[({2-[(1R,3R)-1-Acetoxy-4-methyl-3-{methyl[(2S)-3-methyl-2-({[(2R)-1-methylpyrrolidin-2-yl]carbonyl}amino)butanoyl]amino}pentyl]-5-methyl-1,3-thiazol-4-yl}carbonyl)amino]-2-methyl-5-phenylpentanoic acid] was tested, and the IC50 [1, 5] was 0.408 nM, the IC50 [2, 6] was > 1000 nM and the IC50 [3, 7] was 1.42 nM. For the same molecule, the “cytotoxicity potency” value [4] was “significant loss of potency”.

`CC[C@H](C)[C@H](NC(=O)c1nccn1C)C(=O)N(C)[C@H](C[C@@H](OC(C)=O)c1nc(C(=O)N[C@@H](Cc2ccccc2)C[C@H](C)C(=O)OC)cs1)C(C)C` [Tb51] was tested, and the IC50 [1, 5] was > 1000 nM, the IC50 [2, 6] was > 1000 nM and the IC50 [3, 7] was > 1000 nM. For the same molecule, the “cytotoxicity potency” value [4] was “insignificant or low biological activity”.

`CCOC(=O)[C@@H](C)CC(Cc1ccccc1)NC(=O)c1csc([C@@H](CC(C(C)C)N(C)C(=O)[C@@H](NC(=O)[C@H]2C[C@H](O[Si](C)(C)C(C)(C)C)CCN2C)C(C)C)OC(C)=O)n1` (stereo in doubt) [Tb77, Ethyl (2S,4S)-4-[({2-[(1R,3S)-1-acetoxy-3-{[(2S)-2-({[(4R)-4-{[tert-butyl(dimethyl)silyl]oxy}-1-meth-ylpiperidin-2-yl]carbonyl}amino)-3-methylbutanoyl](methyl)amino}-4-methylpentyl]-1,3-thiazol-4-yl}carbonyl)amino]-2-methyl-5-phenylpentanoate] was tested, and the IC50 [1, 5] was > 400 nM, the IC50 [2, 6] was > 2500 nM and the IC50 [3, 7] was 848 nM. The “cytotoxicity potency” value [4] was “insignificant or low biological activity”.

In the case of `CCOC(=O)[C@@H](C)C[C@H](Cc1ccccc1)NC(=O)c1csc([C@@H](C[C@H](C(C)C)N(C)C(=O)[C@H](CC)NC(=O)[C@H]2CCCCN2C)OC(C)=O)n1` [Tb93, Ethyl (2S,4R)-4-[({2-[(1R,3R)-1-acetoxy-4-methyl-3-{methyl[(2S)-2-({[(2R)-1-methylpiperidin-2-yl]-carbonyl}amino)butanoyl]amino}pentyl]-1,3-thiazol-4-yl}carbonyl)amino]-2-methyl-5-phenylpentanoate], the IC50 ([1]; read-out: HEK 293T, IC50) is reported as 0.2 nM, the IC50 [1, 5] is reported as 0.2 nM and the IC50 ([2]; read-out: MES SA DX, IC50) is reported as 31.9 nM. The IC50 [2, 6] was 31.9 nM, the IC50 ([3]; read-out: MES SA, IC50) was 0.15 nM and the IC50 [3, 7] was 0.15 nM. The “cytotoxicity potency” value [4] was “significant potencies”.
